Measurements: patent US20230398099A1, “METHODS OF TREATING CONDITIONS RELATED TO THE S1P1 RECEPTOR” (Arena Pharmaceuticals, Inc., priority 2020, published 2023)
Read-outs that look alike come from different tables or passages of the source.

Columns and labels:
hS1PR1 = hS1PR1 (Homo sapiens, UniProt P21453); assay: b-arrestin recruitment assay; format: cell-based; settings: for EC50: b-arrestin recruitment, hS1PR1, EC50 [95% confidence interval] (n)
hS1PR2 = hS1PR2 (Homo sapiens, UniProt O95136); assay: b-arrestin recruitment assay; format: cell-based
Chain of hS1PR2 (O95136 whole entry): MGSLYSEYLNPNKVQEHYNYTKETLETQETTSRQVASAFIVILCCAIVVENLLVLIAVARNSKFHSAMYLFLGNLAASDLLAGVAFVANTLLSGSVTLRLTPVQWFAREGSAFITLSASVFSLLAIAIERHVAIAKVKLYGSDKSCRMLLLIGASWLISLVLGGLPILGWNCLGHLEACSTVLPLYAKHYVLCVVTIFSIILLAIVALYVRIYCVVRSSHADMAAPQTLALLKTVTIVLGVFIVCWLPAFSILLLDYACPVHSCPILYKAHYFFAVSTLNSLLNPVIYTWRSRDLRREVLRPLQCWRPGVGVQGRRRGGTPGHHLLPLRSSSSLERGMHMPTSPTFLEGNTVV

hS1PR3 = hS1PR3 (Homo sapiens, UniProt Q99500); assay: b-arrestin recruitment assay; format: cell-based
Chain of hS1PR3 (Q99500 whole entry): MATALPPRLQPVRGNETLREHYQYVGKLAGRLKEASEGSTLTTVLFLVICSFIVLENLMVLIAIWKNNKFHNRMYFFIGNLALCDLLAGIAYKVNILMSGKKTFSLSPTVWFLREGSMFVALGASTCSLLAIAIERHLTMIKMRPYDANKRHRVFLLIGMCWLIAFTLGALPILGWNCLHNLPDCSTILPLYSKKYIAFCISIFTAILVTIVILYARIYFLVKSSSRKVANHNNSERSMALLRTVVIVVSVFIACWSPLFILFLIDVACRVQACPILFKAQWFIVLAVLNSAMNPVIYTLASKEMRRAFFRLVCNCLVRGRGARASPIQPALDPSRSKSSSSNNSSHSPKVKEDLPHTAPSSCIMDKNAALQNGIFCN

hS1PR4 = target: T1, hS1PR4 (Homo sapiens, UniProt O95977); assay: b-arrestin recruitment assay; format: cell-based; settings: for EC50: EC50 [95% confidence interval] (n)
T1 sequence (O95977 1-384): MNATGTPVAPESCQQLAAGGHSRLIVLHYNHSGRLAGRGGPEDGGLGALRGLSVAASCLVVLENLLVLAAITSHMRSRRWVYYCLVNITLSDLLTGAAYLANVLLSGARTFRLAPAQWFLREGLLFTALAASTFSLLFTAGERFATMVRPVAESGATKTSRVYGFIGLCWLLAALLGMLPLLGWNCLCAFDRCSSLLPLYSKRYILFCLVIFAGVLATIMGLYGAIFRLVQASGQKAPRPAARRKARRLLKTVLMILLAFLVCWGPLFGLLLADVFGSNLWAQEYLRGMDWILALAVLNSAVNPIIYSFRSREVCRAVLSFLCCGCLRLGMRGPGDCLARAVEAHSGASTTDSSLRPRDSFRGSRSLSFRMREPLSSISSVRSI

hS1PR5 = hS1PR5 (Homo sapiens, UniProt Q9H228); assay: b-arrestin recruitment assay; format: cell-based; settings: for EC50: EC50 [95% confidence interval] (n)
Chain of hS1PR5 (Q9H228 whole entry): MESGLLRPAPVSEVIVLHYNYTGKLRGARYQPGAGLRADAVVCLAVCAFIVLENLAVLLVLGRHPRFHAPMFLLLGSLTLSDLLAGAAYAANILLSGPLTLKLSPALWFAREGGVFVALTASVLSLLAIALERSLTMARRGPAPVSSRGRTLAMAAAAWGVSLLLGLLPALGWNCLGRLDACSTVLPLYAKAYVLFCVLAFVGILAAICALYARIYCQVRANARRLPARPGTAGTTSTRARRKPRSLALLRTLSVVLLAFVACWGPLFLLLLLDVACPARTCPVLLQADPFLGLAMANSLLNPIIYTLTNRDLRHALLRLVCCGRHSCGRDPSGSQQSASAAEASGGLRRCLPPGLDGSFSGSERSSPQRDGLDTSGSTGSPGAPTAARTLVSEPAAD

S1P2 Receptor = S1P2 Receptor (Homo sapiens, UniProt O95136); assay: S1P2 receptor internalization; format: cell-based; settings: N 5
Chain of S1P2 Receptor (O95136 whole entry): as the sequence (O95136 whole entry) above

hS1P1 = hS1P1 (Homo sapiens, UniProt P21453); assay: S1P1 GTPgS binding assay; format: biochemical; settings: for EC50: S1P1 GTPgS binding, EC50 [95% confidence interval] (n)
Chain of hS1P1 (P21453 whole entry): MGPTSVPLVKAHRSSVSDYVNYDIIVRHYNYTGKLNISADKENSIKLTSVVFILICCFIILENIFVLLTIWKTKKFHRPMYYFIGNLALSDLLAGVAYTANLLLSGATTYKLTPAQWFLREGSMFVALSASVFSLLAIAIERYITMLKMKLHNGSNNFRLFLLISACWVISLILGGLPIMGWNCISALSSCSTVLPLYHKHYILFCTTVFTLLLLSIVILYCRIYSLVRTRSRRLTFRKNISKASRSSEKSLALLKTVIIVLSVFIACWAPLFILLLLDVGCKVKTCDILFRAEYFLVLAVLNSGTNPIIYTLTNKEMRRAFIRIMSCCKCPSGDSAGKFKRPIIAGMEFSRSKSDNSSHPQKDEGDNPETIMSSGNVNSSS

[1] = test system: FITC-induced contact hypersensitivity (CHS)/dermatitis in BALB/c mice; assay: mouse model of FITC-induced contact dermatitis; format: in vivo; settings: for skin thickening (ear thickening): FIG. 8
Text: Fluorescein isothiocyanate isomer I (FITC) was used to induce contact hypersensitivity (CHS)/dermatitis in BALB/c mice by administering two sensitizing applications of the hapten onto the shaved flanks of the animals on Days 0 and 5, followed by three days of FITC challenge on the dorsal surface of both ears on Days 10-12. […] Treatment was initiated on Day −1 to model prophylactic treatment.

[2] = test system: OVA-induced acute asthma model in mice; assay: ovalbumin (OVA)-induced acute asthma model; format: in vivo, mouse; settings: QD Day 12-15; for immune cells in bronchoalveolar lavage (BAL): FIG. 9
Procedure: The OVA model is a widely used pre-clinical allergic asthma model and recapitulates many of the hallmarks of allergic asthma in humans. These include elevated IgE and TH2 related cytokines, mucus hypersecretion, airway inflammation, goblet cell hyperplasia, epithelial hypertrophy, and airway hyperreactivity to stimuli.
Mice were sensitized with an intraperitoneal (IP) injection of OVA and adjuvant on days 0 and 7. Mice were then challenged with intranasal delivery of OVA (10-200 μg) in saline on days 13-15 with endpoints conducted on day 16. Endpoints in this model generally included total and differential cell counts as well as inflammatory mediator content in the broncho-alveolar lavage fluid, airway hyperreactivity and detailed lung mechanics measured with the flexiVent™ rodent mechanical ventilator as well as histopathology and immunohistochemistry on lung sections.

[3] = 1 mg/kg daily oral, compared to vehicle, dose-dependent, FIG. 6
[4] = 1 mg/kg daily oral, compared to vehicle, dose-dependent, FIG. 7

Chain of hS1PR1 (P21453 whole entry): as above

Emax (hS1PR1) [%] | EC50 (hS1PR1) [nM] | EC50 (hS1PR4; b-arrestin recruitment, hS1PR4) [nM] | Emax (hS1PR4; read-out: Emax) [%] | Emax (hS1PR5; read-out: Emax) [%] | Efficacy, % of S1P (S1P2 Receptor) [%] | Emax (hS1P1) [%] | EC50 (hS1P1) [nM] | EC50 (hS1PR5; b-arrestin recruitment, hS1PR5) [nM] | SMILES | further results
113 | 18.3 | 0.99 | 117 | 114 | 100 | 102 | 77 |  | CCCCCCCCCCCCC/C=C/[C@@H](O)[C@@H](N)COP(=O)(O)O [Compound S1P, sphingosine-1-phosphate] | Emax (hS1PR2): 108%; Emax (hS1PR3): 113%; EC50 (hS1PR3; b-arrestin recruitment, hS1PR3, EC50 [95% confidence interval] (n)): 13.9 nM
130 |  | 117 | 93 | 117 |  | 104 |  | 7.3 | CC(C)Oc1ccc(-c2nc(-c3cccc4c3CC[C@@H]4NCCO)no2)cc1C#N [Ozanimod] | 
128 | 6.2 | 3.2 | 104 | 120 | 65 | 98 | 1.8 | 0.71 | CC(C)Cc1ccc(-c2nc(-c3ccc(CN4CC(C(=O)O)C4)c(F)c3)no2)cc1 [Compound 1, 1-{2-fluoro-4-[5-(4-isobutylphenyl)-1,2,4-oxadiazole-3-yl]benzyl}-3-azetidinecarboxylic acid] | EC50 (S1P2 Receptor): 2510 nM; skin thickening (ear thickening) ([1]; 0.1 mg/kg daily oral): had no effect; B cells in the skin [1, 3]: reduced; T cells in the skin [1, 3]: reduced; WBC count [1, 4]: reduced; lymphocyte frequency [1, 4]: reduced; skin thickening (ear thickening) ([1]; 1 mg/kg daily oral): reduced skin thickening; immune cells in bronchoalveolar lavage (BAL) ([2]; 0.1 mg/kg PO): did not have significant effect; immune cells in bronchoalveolar lavage (BAL) ([2]; 1 mg/kg PO): did not have significant effect; lung function measured by airway resistance or elastance ([2]; PO, Methacholine challenge, FIG. 10): no significant effect

SMILES | Emax (hS1PR1) [%] | EC50 (hS1PR1) [nM] | EC50 (hS1PR4; b-arrestin recruitment, hS1PR4) [nM] | Emax (hS1PR4; read-out: Emax) [%] | Emax (hS1PR5; read-out: Emax) [%] | Efficacy, % of S1P (S1P2 Receptor) [%] | Emax (hS1P1) [%] | EC50 (hS1P1) [nM] | EC50 (hS1PR5; b-arrestin recruitment, hS1PR5) [nM] | further results
CCCCCCCCc1ccc(CC[C@](N)(CO)COP(=O)(O)O)cc1 [Fingolimod(P)] |  |  | 0.76 |  |  | 80 |  |  |  | Emax (hS1PR4; b-arrestin recruitment, hS1PR4, % relative to S1P): 94%; Emax (hS1PR5; b-arrestin recruitment, hS1PR5, % relative to S1P): 62%
